According to PubChem BioAssay AID248 (DTP/NCI, 2004):
Values joined by “and” are separate entries in the source; they are usually repeats but may differ in a detail not shown here. Equal values may be shown once. Toxic doses and inconclusive results are not listed. Cut-off read from the data, not from the text of the source: active = T/C of 150% or more; inactive = T/C below 125%.

System: L1210 leukemia ip in BDF1 mice, survival T/C
Test: NCI In Vivo Anticancer Drug Screen. Data for tumor model L1210 Leukemia (intraperitoneal) in B6D2F1 (BDF1) mice
Conditions: endpoint: mean survival time, higher = longer survival
How it was run: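 Value reflects the ratio of survival in compound-treated mice to survival in vehicle-treated controls, with both groups carrying the same transplanted tumor.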

[1] = dose: 100.0 mg/kg/injection, schedule: Q01DX001 (ip), vehicle: saline
[2] = dose: 200.0 mg/kg/injection, schedule: Q01DX001 (ip), vehicle: saline
[3] = dose: 400.0 mg/kg/injection, schedule: Q01DX001 (ip), vehicle: saline
[4] = dose: 100.0 mg/kg/injection, schedule: Q04DX003 (ip), vehicle: saline with Tween-80
[5] = dose: 200.0 mg/kg/injection, schedule: Q04DX003 (ip), vehicle: saline with Tween-80
[6] = dose: 400.0 mg/kg/injection, schedule: Q04DX003 (ip), vehicle: saline with Tween-80
[7] = dose: 100.0 mg/kg/injection, schedule: Q01DX009 (ip), vehicle: Klucel (hydroxypropylcellulose) (HPC)
[8] = dose: 200.0 mg/kg/injection, schedule: Q01DX009 (ip), vehicle: Klucel (hydroxypropylcellulose) (HPC)
[9] = dose: 400.0 mg/kg/injection, schedule: Q01DX009 (ip), vehicle: Klucel (hydroxypropylcellulose) (HPC)
[10] = dose: 100.0 mg/kg/injection, schedule: Q04DX002 (ip), vehicle: Klucel (hydroxypropylcellulose) (HPC)

Measured: T/C

CCCCCCC1CCCc2ccc(CCCC)cc21 (stereo not given)
inactive: dose: 50.0 mg/kg/injection, schedule: Q01DX001 (ip), vehicle: saline 110 % of control | [1] 106 % of control | [2] 101 % of control | [3] 101 % of control

CCN(CC)c1ccnc(SCc2ccccc2)n1
inactive: dose: 100.0 mg/kg/injection, schedule: Q01DX Z (ip), vehicle: methylcellulose (MC) 89 % of control | dose: 200.0 mg/kg/injection, schedule: Q01DX Z (ip), vehicle: methylcellulose (MC) 89 % of control

COC(=O)c1ccccc1N=NN(C)C1CCCCC1
inactive: dose: 100.0 mg/kg/injection, schedule: Q01DX009 (ip), vehicle: other 106 % of control | dose: 200.0 mg/kg/injection, schedule: Q01DX009 (ip), vehicle: other 87 % of control

CC(=O)c1cc(F)ccc1O
inactive: [4] 102 % of control | [5] 97 % of control | [6] 94 % of control

CSc1ccc(NC(=O)Nc2ccc(Cl)cc2C(=O)c2ccccc2)cc1
inactive: [7] 91 % of control | [8] 88 % of control

NNc1ccccc1-c1nc(N)nc(N)n1
inactive: dose: 9.38 mg/kg/injection, schedule: Q01DX001 (ip), vehicle: other 109 % of control | dose: 18.75 mg/kg/injection, schedule: Q01DX001 (ip), vehicle: other 112 % of control | dose: 37.5 mg/kg/injection, schedule: Q01DX001 (ip), vehicle: other 118 % of control

CCOc1ccc(C(=N)N2CCN(C)CC2)c2ccccc12
inactive: dose: 4.2 mg/kg/injection, schedule: Q01DX Z (ip), vehicle: methylcellulose (MC) 104 % of control | dose: 6.3 mg/kg/injection, schedule: Q01DX Z (ip), vehicle: methylcellulose (MC) 103 % of control | dose: 9.5 mg/kg/injection, schedule: Q01DX Z (ip), vehicle: methylcellulose (MC) 97 % of control | dose: 14.3 mg/kg/injection, schedule: Q01DX Z (ip), vehicle: methylcellulose (MC) 106 % of control

O=C(c1ccc(C(=O)N(C2CCCCC2)C2CCCCC2)cc1)N(C1CCCCC1)C1CCCCC1
inactive: dose: 5.0 mg/kg/injection, schedule: Q01DX001 (ip), vehicle: saline 105 % of control | dose: 10.0 mg/kg/injection, schedule: Q01DX001 (ip), vehicle: saline 109 % of control | dose: 20.0 mg/kg/injection, schedule: Q01DX001 (ip), vehicle: saline 103 % of control | dose: 40.0 mg/kg/injection, schedule: Q01DX001 (ip), vehicle: saline 101 % of control | dose: 80.0 mg/kg/injection, schedule: Q01DX001 (ip), vehicle: saline 100 % of control

O=C(c1ccccc1)c1cc(-c2ccccc2)n(C2CCCCC2)c1
inactive: dose: 25.0 mg/kg/injection, schedule: Q01DX009 (ip), vehicle: saline with Tween-80 96 % of control and 120 % of control | dose: 50.0 mg/kg/injection, schedule: Q01DX009 (ip), vehicle: saline with Tween-80 94 % of control and 95 % of control and 98 % of control | dose: 200.0 mg/kg/injection, schedule: Q01DX009 (ip), vehicle: saline with Tween-80 91 % of control and 92 % of control

CC(C)=CCOc1ccc2c(c1)OCO2
inactive: dose: 100.0 mg/kg/injection, schedule: Q04DX002 (ip), vehicle: saline with Tween-80 91 % of control | dose: 200.0 mg/kg/injection, schedule: Q04DX002 (ip), vehicle: saline with Tween-80 103 % of control

C[C@]1(O)CC[C@H]2[C@@H]3CCC4=CC(=O)CCC4=C3C=C[C@@]21C
inactive: [7] 96 % of control | dose: 100.0 mg/kg/injection, schedule: Q04DX003 (sc), vehicle: Klucel (hydroxypropylcellulose) (HPC) 98 % of control | [8] 96 % of control | dose: 200.0 mg/kg/injection, schedule: Q04DX003 (sc), vehicle: Klucel (hydroxypropylcellulose) (HPC) 95 % of control | [9] 110 % of control | dose: 400.0 mg/kg/injection, schedule: Q04DX003 (sc), vehicle: Klucel (hydroxypropylcellulose) (HPC) 101 % of control

COC(=O)c1cc(-c2ccccc2)[nH]c1-c1ccc2ccccc2n1
inactive: dose: 100.0 mg/kg/injection, schedule: Q01DX001 (ip), vehicle: steriod suspending solution 100 % of control | dose: 200.0 mg/kg/injection, schedule: Q01DX001 (ip), vehicle: steriod suspending solution 100 % of control | dose: 400.0 mg/kg/injection, schedule: Q01DX001 (ip), vehicle: steriod suspending solution 94 % of control

O=C(O)/C=C\c1c[nH]c2ccccc12 (tested in a mixture with another compound)
inactive: dose: 75.0 mg/kg/injection, schedule: Q01DX001 (ip), vehicle: saline 104 % of control | dose: 150.0 mg/kg/injection, schedule: Q01DX001 (ip), vehicle: saline 105 % of control | dose: 300.0 mg/kg/injection, schedule: Q01DX001 (ip), vehicle: saline 110 % of control

CCS(=O)(=O)/C=C/c1ccc2ccccc2n1
inactive: [10] 104 % of control | dose: 200.0 mg/kg/injection, schedule: Q04DX002 (ip), vehicle: Klucel (hydroxypropylcellulose) (HPC) 100 % of control

COC(=O)C1C2CC3C(OC(=O)C31C)C2I (stereo not given)
inactive: [1] 90 % of control | [2] 107 % of control | [3] 110 % of control

O=C(O)CCS(=O)(=O)c1ccc(N(CCCl)CCCl)cc1
inactive: [4] 107 % of control | [5] 102 % of control | [6] 105 % of control

CCCCN(CCCC)CC(O)c1cc(-c2cccc(I)c2)nc2c(Cl)cc(Cl)cc12 (stereo not given)
inactive: [4] 90 % of control | [5] 86 % of control | [6] 98 % of control

Cc1cc(C)c(C(=O)O)c(C)c1.[Hg]
inactive: dose: 3.0 mg/kg/injection, schedule: Q04DX003 (ip), vehicle: Klucel (hydroxypropylcellulose) (HPC) 96 % of control | dose: 6.0 mg/kg/injection, schedule: Q04DX003 (ip), vehicle: Klucel (hydroxypropylcellulose) (HPC) 91 % of control | dose: 12.0 mg/kg/injection, schedule: Q04DX003 (ip), vehicle: Klucel (hydroxypropylcellulose) (HPC) 86 % of control | dose: 12.5 mg/kg/injection, schedule: Q04DX003 (ip), vehicle: Klucel (hydroxypropylcellulose) (HPC) 88 % of control

CC(=O)SC(C)CC(=O)O (stereo not given)
inactive: dose: 100.0 mg/kg/injection, schedule: Q04DX003 (ip), vehicle: saline 106 % of control | dose: 200.0 mg/kg/injection, schedule: Q04DX003 (ip), vehicle: saline 101 % of control

O=[N+]([O-])c1ccc(C2OC3CC4C5CCCC5C3C4O2)cc1 (stereo not given)
inactive: dose: 50.0 mg/kg/injection, schedule: Q01DX001 (ip), vehicle: carboxymethylcellulose (CMC) 87 % of control | dose: 100.0 mg/kg/injection, schedule: Q01DX001 (ip), vehicle: carboxymethylcellulose (CMC) 87 % of control | dose: 200.0 mg/kg/injection, schedule: Q01DX001 (ip), vehicle: carboxymethylcellulose (CMC) 91 % of control | dose: 400.0 mg/kg/injection, schedule: Q01DX001 (ip), vehicle: carboxymethylcellulose (CMC) 91 % of control

O=C(O)c1cccc(C2CCCCC2)c1
inactive: dose: 75.0 mg/kg/injection, schedule: Q01DX001 (ip), vehicle: other 106 % of control | dose: 150.0 mg/kg/injection, schedule: Q01DX001 (ip), vehicle: other 97 % of control | dose: 300.0 mg/kg/injection, schedule: Q01DX001 (ip), vehicle: other 101 % of control

CCCCCCC(C)OC(=O)CCl (stereo not given)
inactive: [4] 102 % of control | [5] 104 % of control | [6] 109 % of control

COc1cc(C(=O)Nc2ccccc2F)cc(OC)c1OC
inactive: [7] 92 % of control | [8] 94 % of control | [9] 97 % of control

S=C(Nc1ccc(Cl)c(Cl)c1)SCc1ccco1
inactive: dose: 30.0 mg/kg/injection, schedule: Q04DX003 (ip), vehicle: saline with Tween-80 101 % of control | dose: 60.0 mg/kg/injection, schedule: Q04DX003 (ip), vehicle: saline with Tween-80 101 % of control | dose: 120.0 mg/kg/injection, schedule: Q04DX003 (ip), vehicle: saline with Tween-80 101 % of control

NC(=O)C(c1ccccc1)N1CCCCC1 (stereo not given)
inactive: dose: 25.0 mg/kg/injection, schedule: Q01DX009 (ip), vehicle: Klucel (hydroxypropylcellulose) (HPC) 87 % of control | dose: 25.0 mg/kg/injection, schedule: Q04DX003 (ip), vehicle: Klucel (hydroxypropylcellulose) (HPC) 96 % of control | dose: 50.0 mg/kg/injection, schedule: Q01DX009 (ip), vehicle: Klucel (hydroxypropylcellulose) (HPC) 96 % of control | dose: 50.0 mg/kg/injection, schedule: Q04DX003 (ip), vehicle: Klucel (hydroxypropylcellulose) (HPC) 100 % of control | [7] 97 % of control | dose: 100.0 mg/kg/injection, schedule: Q04DX003 (ip), vehicle: Klucel (hydroxypropylcellulose) (HPC) 92 % of control and 90 % of control

Cc1cc2cc3cccnn3c2nn1
inactive: dose: 25.0 mg/kg/injection, schedule: Q04DX002 (ip), vehicle: saline 106 % of control | dose: 50.0 mg/kg/injection, schedule: Q04DX002 (ip), vehicle: saline 98 % of control | [10] 118 % of control | dose: 100.0 mg/kg/injection, schedule: Q04DX002 (ip), vehicle: saline 106 % of control
